Experiments:
S. carnosus TM300 = test: Killing kinetics (CFU counting); type: cell-based, Staphylococcus carnosus; conditions: S. carnosus TM300, mid-log, 1x and 4x MIC, 30-180 min, triplicate
Experimental: (§1) S. carnosus TM300 and B. subtilis BSF2470 (1A980) cell cultures were grown to mid-log phase in BHI and LB broth, respectively. […] At each time point, an aliquot of […] treated-culture was serial-diluted and placed on BHI agar plates for S. carnosus and LB agar plates for B. subtilis. The plates were grown for 1 day at 37°C and the colonies were counted. Each experiment was performed in triplicate and untreated cell culture was used as the negative control.

[1] = tested on: B. subtilis BSF2470 (1A980); test: Killing kinetics (CFU counting); type: cell-based, Bacillus subtilis
Experimental: as §1

B. subtilis BSF2470 = test: Membrane permeability study with propidium iodide (flow cytometry); type: cell-based, Bacillus subtilis; conditions: B. subtilis BSF2470, 20 min exposure, 0.5x, 1x, 4x MIC, n = 3
Experimental: Cultures of S. carnosus TM300 and B. subtilis BSF2470 were grown to OD600 1.0 and diluted to OD600 0.1 in fresh BHI or LB medium, respectively. The culture was then combined with a final concentration of 25 μM PI (ThermoFisher P3566), 1 mM HEPES, and 1 mM glucose. […] Another two tubes were prepared without antibiotic treatment as controls. The culture was analyzed with a BD Biosciences LSR II flow cytometer for S. carnosus and a BD Biosciences LSRFortessa for B. subtilis using excitation at 488 nm with an argon laser and measurement of emission through a band-pass filter at 695/40 nm. A minimum of 30,000 events were detected for each sample. The experiment was repeated three times, and the mean PI uptake value was determined. The results were calibrated such that the mean PI uptake from the 4x MIC nisin-treated cell culture was set as 100% PI uptake.

[2] = tested on: protein biosynthesis in S. carnosus TM300; test: Macromolecular synthesis assay: 14C-L-amino acids incorporation into protein; type: cell-based, Staphylococcus carnosus; conditions: S. carnosus TM300, 2× MIC, three independent experiments
Experimental: Radiolabel incorporation experiments were carried out similarly as previously described but using S. carnosus ([Wu et al., 2019]). The OD600 of parallel nonradioactive cultures was measured at each time point to normalize the measured radioactivity and minimize effects due to cell death and growth inhibition. The radiolabeled reagents and their corresponding positive and negative antibiotic controls were as follows. […] All experiments were conducted independently three times.
Figure S3. Thre e in de pen den t ex perime nts of incorporation of (A) 14C- acetic acid into fatty acids, (B) 14C- thymi din e into D NA, (C) 3H-uridi ne into RNA, (D) 14C- lab el ed ami no acids into protei n, and (E) 14C- label ed GlcNAc into cell w all in S. carnosus TM300 cells treated with vario u s antimicro bia l agents. T he p ercent i nco rpo ratio n at 0 min was measured after incubati ng the cel l cultur e with 0.8 μCi/mL radioactive precursors for 15 min. Then 0.5x, 1x, 2x, or 4x MIC epilanci n 15X and 2x MIC controls were added to the cell cultur e (t=0), and t he percent incorporation was measur ed ov er time. Positive controls a re gr een and negative controls are black (cells o nly) an d blu e (co mpo und w ith mo d e o f actio n unr elate d to th e a ssay i n que stio n). […]

Substance: Epilancin 15X
- number of colony forming units (CFU) (S. carnosus TM300): significant decrease
- growth (colonies) after treatment ([1]; B. subtilis BSF2470, 4x MIC, 90 and 120 minutes, at the dilution factor plated): no growth was observed
- number of colony forming units (CFU) ([1]; B. subtilis BSF2470, mid-log, 1x and 4x MIC, 30-180 min, triplicate): significant decrease
- PI uptake (membrane disruption) (B. subtilis BSF2470): increase
- protein biosynthesis (14C-L-amino acid incorporation) [2]: considerably stronger effect than that observed with the respective negative controls

Reference: publication PMC10652874, “Investigation into the mechanism of action of the antimicrobial peptide epilancin 15X” (Frontiers in Microbiology, 2023)
